Reference: US9724351B2, “Compounds for the treatment of paramoxyvirus viral infections” (priority 2012, dated 2017)

Legend:
[1] = Cytotoxicity Determination; assay type: cell-based; conditions: human, HEp-2 cells, without addition of virus, CCK-8 readout, bins (Table 4: greater than 100 μM; Table 5: equal to or less than 100 μM and greater than 10 μM), read-out: 50% cytotoxicity concentration (CC50)
Outline: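 Uninfected cells were exposed to compounds in duplicate over a 7-point ½ dilution series starting at 100 μM final, for 5 days at 37 °C, 5% CO2. CCK-8 was then added for 3-4 h, and CC50 was calculated from optical density.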

[2] = tested on: Respiratory Syncytial Virus (RSV) long strain (ATCC#VR-26); assay: RSV Antiviral Assay (CPE reduction assay); assay type: cell-based; conditions: human respiratory syncytial virus, 120 h; HEp-2 cells infected with RSV long strain, 5 days, CCK-8 readout; bins (Table 2: less than 1 μM; Table 3: equal to or higher than 1 μM and less than 50 μM); read-out: 50% effective concentration (EC50)
Outline: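 HEp-2 cells infected with 100 TCID50 RSV long strain per well, compounds from 100 μM or 1 μM in 9-point ⅓ dilutions, duplicates, 1% DMSO. After 5 days at 37 °C, viable cells measured by CCK-8 (A450, 630 nm background); EC50 by regression on mean O.D.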

Row | Compound | CC50 at 5 days [1] | EC50 [2]
1 | COCC/C(=N\NC(=O)CNC(=O)c1ccc(OC)c(OC)c1)c1csc2ccccc12 [Compound 493] | > 100 µM | < 1 µM
2 | COc1ccc(C(=O)N2CCCC2C(=O)c2ccc(OC)c(-c3csc4c(F)cccc34)n2)cc1OC (centres unmarked) [Compound 1822] | 10 to 100 µM | 1 to 50 µM
3 | COc1cc(Cl)c(C(=O)NCC(=O)N/N=C(\C)c2csc3ccccc23)cc1OC [Compound 482] | 10 to 100 µM | 1 to 50 µM
4 | COc1cc(C(=O)NCC(=O)c2ccc(OC)c(-c3ccc(Cl)cc3)n2)ccc1OCCO [Compound 1607] | 10 to 100 µM | < 1 µM
5 | COc1cc(C(=O)NCC(=O)c2ccc(OC)c(-c3ccc(F)cc3F)n2)ccc1OCCO [Compound 1601] | > 100 µM | < 1 µM
6 | COc1cc(C(=O)NCC(=O)c2cccc(-c3csc4c(F)cccc34)n2)ccc1OCCn1ccnc1 [Compound 1246] | 10 to 100 µM | 1 to 50 µM
7 | COc1ccc(C(=O)NCC(=O)c2cc(CC(C)C)cc(-c3csc4c(F)cccc34)n2)cc1OC [Compound 1239] | > 100 µM | 1 to 50 µM
8 | COc1ccc(C(=O)NCC(=O)c2ccc(OC)c(-c3ccc(N4CCCCC4)cc3)n2)cc1OC [Compound 1524] | > 100 µM | 1 to 50 µM
9 | COc1ccc(C(=O)NCC(=O)c2ccc(OC)c(-c3ccc(C)cc3)n2)cc1OC [Compound 1530] | > 100 µM | 1 to 50 µM
10 | CCOc1ccc(C(=O)NCC(=O)N/N=C(\C)c2csc3ccccc23)cc1OCC [Compound 457] | 10 to 100 µM | < 1 µM
11 | CCOc1ccc(C(=O)NCC(=O)N/N=C(/CCOC)c2csc3c(F)cccc23)cc1OC [Compound 463B] | > 100 µM | < 1 µM
12 | COc1cc(C(=O)NCC(=O)c2ccc(OC)c(-c3ccc(Cl)c(Cl)c3)n2)ccc1OCCO [Compound 1616] | > 100 µM | < 1 µM
13 | COc1cc(C(=O)NCC(=O)c2ccc(OC)c(-c3ccc(F)c(Cl)c3)n2)ccc1OCC(=O)N(C)C [Compound 1322] | > 100 µM | < 1 µM
14 | COc1ccc(C(=O)NCC(=O)c2ccc(OC)c(-c3cccc(F)c3F)n2)cc1OC [Compound 1526] | > 100 µM | 1 to 50 µM
15 | COc1ccc(C(=O)NCC(=O)c2ccc(N(C)C)c(-c3csc4c(F)cccc34)n2)cc1OC [Compound 2101] | > 100 µM | 1 to 50 µM
16 | COc1cc(C(=O)NCC(=O)c2ccc(OC)c(-c3ccnc(Cl)c3)n2)ccc1OCCO [Compound 1611] | > 100 µM | 1 to 50 µM
17 | CCN(CC)c1cccc(C(=O)NCC(=O)N/N=C(\C)c2csc3ccccc23)c1 [Compound 503] | > 100 µM | 1 to 50 µM
18 | COc1ccc(C(=O)NCC(=O)c2ccc(O)c(-c3csc4c(F)cccc34)n2)cc1OC [Compound 1335] | 10 to 100 µM | < 1 µM
19 | COc1ccc(C(=O)NCC(=O)N/N=C(\C#N)c2ccccc2)cc1OC [Compound 454] | > 100 µM | 1 to 50 µM
20 | CCCC/C(=N\NC(=O)CNC(=O)c1ccc(OC)c(OCC)c1)c1csc2ccccc12 [Compound 246A] | 10 to 100 µM | < 1 µM

Row | Compound | CC50 at 5 days [1] | EC50 [2]
21 | COc1ccc(C(=O)NCC(=O)c2ccc(OC)c(-c3ccc(F)c(Cl)c3)n2)cc1OC [Compound 1529] | > 100 µM | < 1 µM
22 | COc1ccc(C(=O)NCC(=O)N2CCCC(c3ccc(F)c4sccc34)=N2)cc1OC [Compound 3500] | > 100 µM | < 1 µM
23 | COc1ccc(C(=O)NCC(=O)c2nc(-c3csc4c(F)cccc34)c(C)n2C)cc1OC [Compound 1358] | 10 to 100 µM | < 1 µM
24 | C/C=C\c1cc(C(=O)CNC(=O)c2ccc(OC)c(OC)c2)nc(-c2csc3c(F)cccc23)c1 [Compound 1243] | > 100 µM | 1 to 50 µM
25 | CNc1ccc(C(=O)CNC(=O)c2ccc(OCCO)c(OC)c2)nc1-c1csc2c(F)cccc12 [Compound 1253] | > 100 µM | < 1 µM
26 | COc1cc(C(=O)NCC(=O)c2ccc(OC)c(-c3ccc(OC(F)(F)F)cc3)n2)ccc1OCCO [Compound 1602] | > 100 µM | < 1 µM
27 | COc1ccc(C(=O)NCC(=O)c2ccc(OC)c(-c3ccc(F)c(Cl)c3)n2)cc1F [Compound 2642] | > 100 µM | 1 to 50 µM
28 | COc1ccc(C(=O)NCC(=O)c2ccc(-c3csc4c(F)cccc34)o2)cc1OC [Compound 1351] | > 100 µM | 1 to 50 µM
29 | COc1ccc(C(=O)NCC(=O)N/N=C/c2csc3c(Cl)cccc23)cc1OC [Compound 400-12] | 10 to 100 µM | 1 to 50 µM
30 | COc1cc(C(=O)NCC(=O)c2ccc(OC)c(-c3c[s+]([O-])c4c(F)cccc34)n2)ccc1OCCO (centres unmarked) [Compound 3302] | 10 to 100 µM | < 1 µM
31 | CCOc1ccc(C(=O)NCC(=O)N/N=C(\CCc2ccccc2)c2csc3ccccc23)cc1OC [Compound 459] | > 100 µM | < 1 µM
32 | COc1ccc(C(=O)NCC(=O)N/N=C(\C)c2c(OC)sc3ccccc23)cc1OC [Compound 400-19] | 10 to 100 µM | 1 to 50 µM
33 | COc1ccc(C(=O)NCC(=O)N/N=C(/C)c2c(OC)sc3ccccc23)cc1OC [Compound 400-14] | > 100 µM | 1 to 50 µM
34 | CCN1C/C(=N\NC(=O)CNC(=O)c2ccc(OC)c(OC)c2)c2c(sc3c(F)cccc23)C1 [Compound 400-23] | > 100 µM | < 1 µM
35 | COc1ccc(C(=O)NCC(=O)c2ccc(OC)c(-c3c[nH]nc3C)n2)cc1OC [Compound 1541] | > 100 µM | 1 to 50 µM
36 | COc1cc(C(=O)N[C@@H](COC(C)(C)C)C(=O)c2ccc(OC)c(-c3csc4c(F)cccc34)n2)ccc1OCCO [Compound 1819] | 10 to 100 µM | < 1 µM
37 | COc1ccc(C(=O)CNC(=O)c2ccncn2)nc1-c1ccc(F)c(Cl)c1 [Compound 4205] | > 100 µM | 1 to 50 µM
38 | COc1cc(C(=O)NCC(=O)N(C)/N=C/c2c(C)sc3c(F)cccc23)ccc1OCCO [Compound 2300] | 10 to 100 µM | < 1 µM
39 | CCOc1ccc(C(=O)NCC(=O)N/N=C/c2coc3c(F)cccc23)cc1OC [Compound 400-28] | > 100 µM | 1 to 50 µM
40 | CCOc1ccc(C(=O)NCC(=O)N/N=C(\C)c2csc3c(F)cccc23)cc1OC [Compound 461] | 10 to 100 µM | < 1 µM

Row | Compound | CC50 at 5 days [1] | EC50 [2]
41 | COc1ccc(C(=O)NCC(=O)N/N=C(\C)c2ccnc3ccccc23)cc1OC [Compound 449] | > 100 µM | 1 to 50 µM
42 | COc1cc(C(=O)N[C@@H](CO)C(=O)c2ccc(OC)c(-c3csc4c(F)cccc34)n2)ccc1OCCO [Compound 1830] | > 100 µM | < 1 µM
43 | COc1cc(C(=O)CNC(=O)c2ccc(OCCO)c(OC)c2)nc(-c2csc3c(F)cccc23)c1 [Compound 1213] | > 100 µM | < 1 µM
44 | COc1ccc(C(=O)NCC(=O)c2ccc(OC)c(-c3cc(C(=O)NC4CCCCC4)ccc3F)n2)cc1OC [Compound 1514] | > 100 µM | 1 to 50 µM
45 | COCC/C(=N/NC(=O)CNC(=O)c1ccc(OC)c(OC)c1O)c1csc2c(F)cccc12 [Compound 400-21] | > 100 µM | 1 to 50 µM
46 | COc1cc(OC)c(C(=O)NCC(=O)N/N=C(\C)c2csc3ccccc23)cc1OC [Compound 480] | > 100 µM | 1 to 50 µM
47 | COc1cc(C(=O)CNC(=O)c2ccc(OC)c(OC)c2)nc(-c2ccc3c(c2)OCCO3)c1 [Compound 1402] | > 100 µM | 1 to 50 µM
48 | CCOc1ccc(C(=O)NCC(=O)c2ccc(OC)c(-c3ccc(F)c(Cl)c3)n2)cc1OC [Compound 2641] | > 100 µM | < 1 µM
49 | CCOc1ccc(C(=O)NCC(=O)N/N=C/c2csc3c(F)cccc23)cc1OC [Compound 400-26] | > 100 µM | < 1 µM
50 | CCCCOc1ccc(C(=O)NCC(=O)N/N=C(\C)c2csc3ccccc23)cc1OC [Compound 483] | 10 to 100 µM | 1 to 50 µM
51 | COc1cc(C(=O)NCC(=O)N/N=C(\C)c2csc3ccccc23)ccc1OC(C)C [Compound 475] | > 100 µM | < 1 µM
52 | CNC(=O)c1ccc(-c2nc(C(=O)CNC(=O)c3ccc(OC)c(OC)c3)ccc2OC)cc1 [Compound 1504] | > 100 µM | 1 to 50 µM
53 | COc1ccc(C(=O)NCC(=O)c2cccc(-n3ncc4c(F)cccc43)n2)cc1OC [Compound 2601] | > 100 µM | 1 to 50 µM
54 | COc1cc(C(=O)NCC(=O)c2ccc(OC)c(-c3ccc(Cl)nc3)n2)ccc1OCCO [Compound 1330] | > 100 µM | 1 to 50 µM
55 | CCN(/N=C/c1csc2c(F)cccc12)C(=O)CNC(=O)c1ccc(OCCO)c(OC)c1 [Compound 2301] | > 100 µM | < 1 µM
56 | O=C(NCC(=O)c1cccc(-c2csc3c(F)cccc23)n1)c1ccc(OCCO)c(O)c1 [Compound 1230] | 10 to 100 µM | 1 to 50 µM
57 | CCc1cc(C(=O)CNC(=O)c2ccc(OCCO)c(OC)c2)nc(-c2csc3c(F)cccc23)c1 [Compound 1250] | > 100 µM | < 1 µM
58 | COc1cc(C(=O)NCC(=O)c2ccc(OC)c(-c3ccc(C(F)(F)F)cc3)n2)ccc1OCCO [Compound 1605] | 10 to 100 µM | < 1 µM
